The subject of series [1] is NS5B chimeric replicon of clinical isolate 1a_H77 in Huh7-cure cells. The series can be described thus: Transient replicon assay, chimeric replicon of clinical isolate 1a_H77 (CI1). Format: cell-based, HCV genotype 1a. Particulars: Hepatitis C virus, 48 h, read-out: EC50-T CI1.
Series [2] can be described thus: Pharmacokinetic analysis after single oral administration. Particulars: male Sprague-Dawley rats, single oral dose 10 mg/kg, 7 h post dosing; for Kp at 7 h: rat, liver/plasma, read-out: Lever/plasma ratio. Format: in vivo. As for the experimental part: Three male Sprague-Dawley rats were given a single oral dose of 10 mg/kg of the studied compounds. The compounds were administered by gavage as a solution in PEG400/2% Vitamine E Tocopherol polyethyleneglycol succinate (Vitamin E-TPGS). 7 hours after administration, the animals were sacrificed and plasma and liver samples taken. The samples were analyzed using a qualified research LC-MS/MS method to determine the concentration of the compound in the liver and the liver-to-plasma ratio at 7 h post dosing.

In series [3] the test system is NS5B chimeric replicon of clinical isolate 1a—6 in Huh7-cure cells. In words: Transient replicon assay, chimeric replicon of clinical isolate 1a—6 (CI2). The class given is cell-based, HCV genotype 1a. Particulars: Hepatitis C virus, 48 h, read-out: EC50-T CI2.
The target in series [4] is T1, HCV NS5B polymerase (NS5BΔC21) (Hepatitis C virus genotype 1b, UniProt Q9WMX2).
T1 construct: NS5B (genotype 1b consensus strain Con1) lacking 21 C-terminal residues; made in house; host or cells: E. coli Rosetta 2 (DE3)
The series can be described thus: RNA-dependent RNA polymerase assay (enzyme inhibition assay). The class given is biochemical, HCV (genotype 1b consensus strain Con1). The source says:
The coding sequence for NS5B (genotype 1b consensus strain Con1) lacking 21 C-terminal residues was amplified from plasmid pFKI389/ns3-3′ (Genbank accession no. AJ242654), plasmid pCV-H77C (Genbank accession no. AF 011751.1) and subcloned into the pET21b plasmid as described previously (Pauwels et al. J. Virol., 2007). The NS5BΔC21 expression constructs were transformed into E. coli Rosetta 2 (DE3) (Novagen, Madison, Wis.). One hundred milliliters of LB-medium supplemented with carbenicillin (50 μg/mL) and chloramphenicol (34 μg/mL) was inoculated with one colony, grown overnight, and transferred to fresh LB-medium supplemented with 3% ethanol, carbenicillin and chloramphenicol, at a ratio of 1:200. Cells were grown to an optical density at 600 nm of 0.6, after which the expression cultures were shifted to a growth temperature of 20° C. following induction with ispopropyl-1-thio-β-D-galactopyranoside and MgCl2 at a final concentration of 0.4 mM and 10 μM, respectively. After 18 h of induction, cells were harvested by centrifugation and resuspended in 20 mM Tris-HCl, pH 7.5, 300 mM NaCl, 10% glycerol, 0.1% NP40, 4 mM MgCl2, 5 mM DTT supplemented with EDTA-free Complete Protease Inhibitor (Roche, Basel, Switzerland). Cell suspensions were disrupted by sonication and incubated with 10-15 mg/L of DNase I (Roche, Basel, Switzerland) for 30 min. Cell debris was removed through ultracentrifugation at 30,000×g for 1 hour and clarified cell lysate was flash frozen and stored at −80° C. prior to purification.
Clarified cell lysate was thawed and subsequently loaded onto a 5 mL pre-packed HisTrap FF column equilibrated with 25 mM HEPES, pH 7.5, 500 mM NaCl, 10% glycerol and 5 mM DTT. Proteins were eluted with 500 mM imidazole at a flow rate of 1 mL/min. Fractions containing the protein of interest were applied onto a pre-packed 26/10 HiPrep Desalting Column equilibrated with 25 mM HEPES, pH 7.5, 250 mM NaCl, 10% glycerol and 5 mM DTT. The buffer-exchanged NS5B peak was then applied onto a 6 ml Resource S column. Protein was eluted with an increasing salt gradient and fractions collected. Protein purity was assessed on Nu-PAGE pre-cast gels (Invitrogen, Carlsbad, Calif.). Purified NS5B samples were concentrated using Centri-Prep concentrators (Millipore, Billerica, Mass., USA) and protein concentrations were determined by spectrofotometry with the Nanodrop (Nanodrop Technologies, Wilmington, Del., USA).
Measurement of HCV NS5B polymerization activity was performed by evaluating the amount of radio labeled GTP incorporated by the enzyme in a newly synthesized RNA using […] RNA template/primer. The RdRp assay was carried out in 384-well plates. 2.5 nM of purified NS5B enzyme was pre-incubated for 10 min with 150 nM 5′-biotinylated oligo(rG13) primer, 15 nM poly(rC) template, in 18 mM Tris-HCl, pH 7.5, 5 mM MgCl2, 20.5 mM KCl, 17 mM NaCl and 2.5 mM of DTT. The test compounds were the added to the preformed polymerase-template complex, and incubated at room temperature for 15 min before the addition 600 nM of GTP, and 0.13 μCi of [^3H]GTP. 30 μL reaction mixture was incubated at room temperature for 2 h before stopping the reaction by adding 30 μL of streptavidin coated SPA-beads (GE Healthcare, Uppsala, Sweden) in 0.5 M EDTA. […] IC50 values represent the concentration of compound required to decrease by 50% the amount of RNA produced which is measured by the detection of incorporated radiolabeled GTP.

Series [5] deals with wild type replicon of genotype 1b (con1b) in Huh7-cure cells. The series can be described thus: Transient replicon assay, wild type replicon of genotype 1b (Con1b). The class given is cell-based, HCV genotype 1b. Particulars: Hepatitis C virus, transient wild type replicon genotype 1b, 48 h, luciferase, read-out: EC50-T Con1b.
Series [6] has as its target T2, NS5B wild-type enzyme genotype 1b (Hepatitis C virus genotype 1b, UniProt Q9WMX2).
T2 construct: NS5B (genotype 1b consensus strain Con1) lacking 21 C-terminal residues; made in house; host or cells: E. coli Rosetta 2 (DE3)
In words: Enzyme binding assay (SPR, Biacore), genotype 1b. As for the experimental part:
(§1) The compounds of formula (I) were examined for their enzymatic binding kinetics or affinity using a Surface Plasmon Resonance (SPR)-based method, i.e. Biacore. A slow dissociation of the inhibiting compound from its viral target (low koff, low Kd) is believed to potentially reduce the development of drug resistance against anti-viral drugs (Dierynck et al. 2007. Journal of Virology, vol. 81, No. 24, 13845-13851). All measurements were performed on a Biacore T100 instrument (GE Healthcare). The purified HIS6-tagged NS5BΔC21 polymerases were immobilized using non-covalent capturing to an NTA sensor chip (GE Healthcare) in immobilization buffer (20 mM MOPS pH 7.4, 500 mM NaCl, 0.005% Tween-P20, 1 mM DTT, 50 μM EDTA). Interaction studies were all performed at 25° C. Inhibitors were serially diluted in running buffer (20 mM Tris-HCl pH 7.4, 150 mM NaCl, 50 μM EDTA, 1 mM DTT, 0.005% Tween-P20) containing 5% dimethyl sulfoxide (DMSO). Single-cycle kinetics were used, in which 5 increasing concentrations of compound were injected for a period of 300 s each in 1 single cycle, and dissociation was monitored for a period of 1200 s. The sensor surface was completely regenerated in between the cycles. Data were analyzed using simultaneous nonlinear regression analysis (global fitting) adapted for single-cycle kinetics with Biacore T100 BiaEval evaluation software 2.0 (GE Healthcare). The individual rate constants kon and koff and a derived affinity constant, Kd=koff/kon, were determined by a kinetic evaluation of the sensorgrams. The kinetic models accounted for bulk and limited mass transport effects. Every analysis was performed at least in two independent experiments. The dissociation rate of a kinetic interaction can be translated into a compound residence time (dissociative half-life t1/2=ln(2)/koff) representative for the interaction time between the polymerase and its inhibitor.
(§2) The observed association rate constants (kon), dissociation rate constants (koff), derived affinity constant (Kd) and dissociative half-life (t1/2) measured for compounds of formula (I) or subgroups thereof on NS5B wild-type enzyme genotypes 1a, 1b and 4a are given in Table 2.

For series [7], the target named is T3, NS5B wild-type enzyme genotype 1a (Hepatitis C virus genotype 1a, UniProt P27958).
T3 construct: The purified HIS6-tagged NS5BΔC21 polymerases were immobilized; made in house; host or cells: E. coli Rosetta 2 (DE3)
The series can be described thus: Enzyme binding assay (SPR, Biacore), genotype 1a. The arrangement: species or system HCV genotype 1a. As for the experimental part:
as §1, §2

The target in series [8] is T4, NS5B wild-type enzyme genotype 4a (UniProt O39929).
T4 construct: fused on or other part: His6 tag
The series can be described thus: Enzyme binding assay (SPR, Biacore), genotype 4a. On the set-up: species or system HCV genotype 4a. As to the method: as §1, §2

The values that follow come from US8357687B2, “Macrocyclic indole derivatives useful as hepatitis C virus inhibitors” (priority 2008, dated 2013).

T3 sequence (P27958 2421-2990): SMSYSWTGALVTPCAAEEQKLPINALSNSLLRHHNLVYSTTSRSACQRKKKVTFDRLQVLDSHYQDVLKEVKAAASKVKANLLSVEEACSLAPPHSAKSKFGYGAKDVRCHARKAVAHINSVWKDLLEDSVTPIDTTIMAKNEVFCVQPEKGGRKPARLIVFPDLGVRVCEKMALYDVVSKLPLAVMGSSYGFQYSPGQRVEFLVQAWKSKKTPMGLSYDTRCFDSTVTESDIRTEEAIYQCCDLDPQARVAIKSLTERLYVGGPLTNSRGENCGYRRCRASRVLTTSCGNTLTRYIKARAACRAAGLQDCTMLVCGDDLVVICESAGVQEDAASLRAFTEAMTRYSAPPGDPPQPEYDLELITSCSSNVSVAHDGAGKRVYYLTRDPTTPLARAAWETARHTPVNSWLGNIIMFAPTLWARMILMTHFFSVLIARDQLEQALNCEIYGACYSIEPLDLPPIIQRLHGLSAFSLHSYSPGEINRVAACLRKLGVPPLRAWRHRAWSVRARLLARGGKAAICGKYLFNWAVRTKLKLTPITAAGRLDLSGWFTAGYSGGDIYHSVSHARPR

As to `CN1CCOCCN(C)S(=O)(=O)NC(=O)c2ccc3c(C4CCCCC4)c(n(C)c3c2)-c2ccccc2OCC1=O` [Compound 10, 25-cyclohexyl-4,10,19-trimethyl-5,6,9,10-tetrahydro-2H,8H-14,18:17,20-di(metheno)-1,7,11,4,10,12,19-benzodioxathiatetraazacyclodocosine-3,13 (4H,12H,19H)-dione 11,11-dioxide], the EC50 in series [1] is 121 nM; in series [3], 88 nM; in series [5] it was 75 nM. Also, in series [2], the “Concentration Liver” value turned out to be 1717 ng/g. Besides, the Kp at 7 h in series [2] is 64. Moreover, in series [4], the IC50 was 161 nM.

Turning to `CN1CCCCN(C)S(=O)(=O)NC(=O)c2ccc3c(C4CCCCC4)c(n(C)c3c2)-c2ccccc2OCC1=O` [Compound 15, 24-cyclohexyl-4,9,18-trimethyl-4,5,6,7,8,9-hexahydro-13,17:16,19-di(metheno)-1,10,4,9,11,18-benzoxathiatetraazacyclohenicosine-3,12(2H,11H,18H)-dione 10,10-dioxide], the concentration giving a half-maximal response (EC50) turned out to be 102 nM in series [1], 99 nM in series [3] and 169 nM in series [5]. For the same compound, in series [2], the “Concentration Liver” value was 1524 ng/g. In series [2], the Kp at 7 h is 99. Moreover, in series [4], the IC50 was determined as 124 nM.

As for `CN1CCCCCNC(=O)COc2cc(F)ccc2-c2c(C3CCCCC3)c3ccc(cc3n2C)C(=O)NS1(=O)=O` [Compound 50, 25-cyclohexyl-23-fluoro-10,19-dimethyl-5,6,7,8,9,10-hexahydro-2H-14,18:17,20-di(metheno)-1,11,4,10,12,19-benzoxathiatetraazacyclodocosine-3,13(4H,12H,19H)-dione 11,11-dioxide], the figures for the concentration giving a half-maximal response (EC50) in series [1], in series [3] and in series [5] were 117 nM, 156 nM and 254 nM, respectively. Moreover, the dissociation constant (Kd) in series [6] was found to be 25 nM; in series [7] it was 40 nM; in series [8] (Kd=koff/kon), 9.1 nM. The koff in series [6] (genotype 1b, SPR, 25° C.) is 0.0006 s⁻¹; in series [7], 0.0067 s⁻¹; in series [8] (SPR, 25° C.), 0.002 s⁻¹. For the same compound, the kon in series [6] (genotype 1b, SPR, 25° C.) was 2.3E+04 1/MS; in series [7] (genotype 1a, SPR, 25° C.), 1.7E+05 1/MS; in series [8] (SPR, 25° C.) it was 2.2E+05 1/MS. The “t1/2 (dissociative half-life)” value in series [6] (genotype 1b, t1/2=ln(2)/koff) is 1163 s; in series [7] (genotype 1a, t1/2=ln(2)/koff), 103 s; in series [8] (t1/2=ln(2)/koff), 343 s. The same compound had a 50% inhibitory concentration (IC50) in series [4] of 109 nM.
